# From patent US11987795B2, “Methods of modulating SLC7A11 pre-mRNA transcripts for diseases and conditions associated with expression of SLC7A11” (The Broad Institute, Inc., priority 2020, dated 2024)
# Where two headings read alike, the source gives them in different places.
# Columns and labels:
# [1] = test system: K562 cells; experiment: Maximal respiration with sulfasalazine inhibition of the transporter; assay type: cell-based, human; details: FIG. S7A-E
# Protocol: 1.25×10^5 K562 cells were plated on a Seahorse plate in Seahorse XF DMEM media (Agilent) containing 25 mM glucose and 4 mM glutamine (ThermoFisher Scientific). Oxygen consumption and extracellular acidification rates were simultaneously recorded by a Seahorse XFe96 Analyzer (Agilent) using the mito stress test protocol, in which cells were sequentially perturbed by […] oligomycin, 1 μM CCCP and […] antimycin (Sigma). Data were analyzed using the Seahorse Wave Desktop Software (Agilent). Data were not corrected for carbonic acid derived from respiratory CO2. For seahorse in HeLa and HAP1 cells, 5×104 and 1×10^5 cells were plated in a 96-well seahorse plate the day before the experiment (respectively). Cells were trypsinized after the experiment and recounted and the data was normalized to cell number.
# [2] = target: T1, cystine/glutamate antiporter SLC7A11 (xCT) (Homo sapiens, UniProt Q9UPY5); experiment: Glutamate secretion with sulfasalazine inhibition of the transporter; assay type: cell-based; details: K562 cells; FIG. S7A-E
# T1 construct: endogenous in cells; host or cells: K562 (probable)
# T1 sequence (Q9UPY5 1-501): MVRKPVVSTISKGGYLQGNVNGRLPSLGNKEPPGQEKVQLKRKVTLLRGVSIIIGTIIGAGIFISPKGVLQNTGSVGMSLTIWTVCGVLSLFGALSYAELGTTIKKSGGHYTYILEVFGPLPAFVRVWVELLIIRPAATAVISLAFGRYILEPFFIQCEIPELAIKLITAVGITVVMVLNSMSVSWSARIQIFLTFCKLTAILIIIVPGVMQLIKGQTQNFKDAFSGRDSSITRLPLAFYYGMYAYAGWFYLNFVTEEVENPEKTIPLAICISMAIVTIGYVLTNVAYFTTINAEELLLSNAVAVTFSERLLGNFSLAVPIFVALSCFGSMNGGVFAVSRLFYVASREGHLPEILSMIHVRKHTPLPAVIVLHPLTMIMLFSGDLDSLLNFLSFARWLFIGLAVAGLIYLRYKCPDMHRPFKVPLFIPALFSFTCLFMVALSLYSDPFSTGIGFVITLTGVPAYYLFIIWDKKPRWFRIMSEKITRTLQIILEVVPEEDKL
# T1 sequence (P08195 1-529 partner): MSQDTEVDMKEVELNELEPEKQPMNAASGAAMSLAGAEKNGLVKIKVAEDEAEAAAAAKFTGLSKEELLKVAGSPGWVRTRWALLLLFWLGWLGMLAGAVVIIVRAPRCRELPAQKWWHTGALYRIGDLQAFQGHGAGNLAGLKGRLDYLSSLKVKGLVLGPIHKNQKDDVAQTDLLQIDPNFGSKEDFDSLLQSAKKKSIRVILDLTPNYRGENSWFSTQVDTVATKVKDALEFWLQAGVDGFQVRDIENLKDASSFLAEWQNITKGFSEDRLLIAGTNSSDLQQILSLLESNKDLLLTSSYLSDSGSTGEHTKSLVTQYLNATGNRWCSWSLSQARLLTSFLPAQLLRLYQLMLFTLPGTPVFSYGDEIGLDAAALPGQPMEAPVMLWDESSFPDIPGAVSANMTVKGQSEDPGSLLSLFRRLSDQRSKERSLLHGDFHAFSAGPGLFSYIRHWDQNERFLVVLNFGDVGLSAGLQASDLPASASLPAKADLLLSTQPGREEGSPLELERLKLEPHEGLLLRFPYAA
# Protocol: Glutamate levels were determined using a commercially available AMPLEX kit (Life Technologies). LUC7L2WT, LUC7L2Rescue (LUC7L2KO cells were a LUC7L2 cDNA was stably expressed), LUC7L2KO and ASO treated K562 or HAP1 cells were grown for 24 h in fresh culture media and counted. Cells were then washed with PBS, the media was replaced and the cells were incubated for another 3 h. Medias were then collected and centrifuged at 2,000 g for 3 min, and glutamate concentrations were determined from the supernatant.
# [3] = target: T2, PFKM (Homo sapiens, UniProt P08237); details: PFKM / PFK inhibition, cited from earlier work
# T2 sequence (P08237 2-780 limits assumed): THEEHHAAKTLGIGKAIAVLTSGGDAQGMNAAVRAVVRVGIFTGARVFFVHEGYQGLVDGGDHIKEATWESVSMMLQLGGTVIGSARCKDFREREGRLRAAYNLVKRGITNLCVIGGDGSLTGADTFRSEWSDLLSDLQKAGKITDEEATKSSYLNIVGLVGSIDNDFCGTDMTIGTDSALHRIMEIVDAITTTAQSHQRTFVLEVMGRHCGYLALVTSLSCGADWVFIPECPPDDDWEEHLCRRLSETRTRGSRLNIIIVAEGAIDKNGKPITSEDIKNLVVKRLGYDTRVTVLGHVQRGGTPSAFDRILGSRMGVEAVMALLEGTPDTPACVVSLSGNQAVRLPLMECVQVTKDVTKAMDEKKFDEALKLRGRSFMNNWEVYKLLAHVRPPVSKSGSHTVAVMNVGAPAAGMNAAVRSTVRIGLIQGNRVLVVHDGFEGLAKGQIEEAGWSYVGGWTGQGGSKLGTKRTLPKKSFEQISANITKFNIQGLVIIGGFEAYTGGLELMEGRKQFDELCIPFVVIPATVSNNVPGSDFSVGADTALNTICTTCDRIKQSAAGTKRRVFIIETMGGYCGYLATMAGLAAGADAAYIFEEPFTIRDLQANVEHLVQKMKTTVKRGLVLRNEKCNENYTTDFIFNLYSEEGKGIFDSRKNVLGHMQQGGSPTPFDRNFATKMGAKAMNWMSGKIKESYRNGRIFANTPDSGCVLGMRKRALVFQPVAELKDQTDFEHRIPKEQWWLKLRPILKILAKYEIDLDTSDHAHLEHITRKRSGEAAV
# [4] = test system: mdx mice; experiment: Wire hang test in mdx mice; assay type: in vivo; details: dantrolene 10 mg/kg/day with oligo AON23 10 mg/kg/week versus AON23 10 mg/kg/week alone, p=0.022
# [5] = humans, long term administration; cited from earlier work
compound,measurement,setting,value
"O=C(O)c1cc(/N=N/c2ccc(S(=O)(=O)Nc3ccccn3)cc2)ccc1O [sulfasalazine (SAS), sulfasalazine]",maximal respiration,[1],promoted maximal respiration
same,glutamate secretion,[2],prevented glutamate secretion
tryptolinamide [tryptonilamide],shift of energy metabolism from glycolysis to OXPHOS,[3],glycolysis to OXPHOS shift
same,shift of energy metabolism from glycolysis to OXPHOS,[3]; listed as tryptolinamide,strong effect
O=C1CN(/N=C/c2ccc(-c3ccc([N+](=O)[O-])cc3)o2)C(O)=N1 [Dantrolene],functional benefit in wire hang test,[4],functional benefit
same,dose shown to be safe,[5],up to 8 mg/kg/day
